Measurements: patent US11492340B2 (priority 2017, dated 2022)
Where “and” joins values, the source holds several entries; their conditions need not be identical. Equal values may be shown once. Read-outs that look alike come from different tables or passages of the source.

How the values were obtained:
[1] = molecular target: T1, isopropyl phosphate-aged eeAChE (Electrophorus electricus, UniProt O42275); type: biochemical, electric eel
T1 construct: purchased Sigma Aldrich

[2] = molecular target: T2, methylphosphonate-aged AChE (Electrophorus electricus, UniProt O42275); type: biochemical, electric eel
T2 construct: purchased Sigma Aldrich
T2 sequence (O42275 24-633): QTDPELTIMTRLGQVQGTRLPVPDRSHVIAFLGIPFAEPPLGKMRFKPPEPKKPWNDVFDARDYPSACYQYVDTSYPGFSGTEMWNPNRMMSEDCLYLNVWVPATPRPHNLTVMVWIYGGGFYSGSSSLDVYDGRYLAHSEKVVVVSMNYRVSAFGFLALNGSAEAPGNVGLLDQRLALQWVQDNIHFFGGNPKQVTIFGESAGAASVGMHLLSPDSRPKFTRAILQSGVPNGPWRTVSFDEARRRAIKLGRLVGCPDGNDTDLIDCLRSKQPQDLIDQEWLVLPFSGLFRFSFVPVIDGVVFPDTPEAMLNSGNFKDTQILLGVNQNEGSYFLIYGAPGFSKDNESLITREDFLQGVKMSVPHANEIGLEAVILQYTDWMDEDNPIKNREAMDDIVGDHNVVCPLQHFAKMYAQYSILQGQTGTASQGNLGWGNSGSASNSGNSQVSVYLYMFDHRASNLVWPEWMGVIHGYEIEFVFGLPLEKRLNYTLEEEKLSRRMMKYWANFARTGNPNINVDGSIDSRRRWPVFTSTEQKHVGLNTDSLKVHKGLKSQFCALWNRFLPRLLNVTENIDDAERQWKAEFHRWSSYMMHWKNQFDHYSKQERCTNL

[3] = molecular target: T3, methylphosphonate-aged eeAChE (Electrophorus electricus, UniProt O42275); type: biochemical, electric eel; conditions: for screening efficacy, relative activity (FIG. 3B), in words: pH 8
T3 construct: purchased Sigma Aldrich
T3 sequence (O42275 24-633): as above

[4] = molecular target: T1, isopropyl phosphate-aged eeAChE; type: biochemical, electric eel; remark: listed apart in the source
[5] = molecular target: T3, methylphosphonate-aged eeAChE; experiment: biochemical; design: species or system electric eel
[6] = molecular target: T1, isopropyl phosphate-aged eeAChE; experiment: biochemical; design: species or system electric eel
[7] = molecular target: T1, isopropyl phosphate-aged eeAChE; type: biochemical, electric eel; conditions: pH 8
[8] = molecular target: T3, methylphosphonate-aged eeAChE; type: biochemical, electric eel; conditions: pH 8
[9] = molecular target: T3, methylphosphonate-aged eeAChE; type: biochemical, electric eel
[10] = molecular target: T1, isopropyl phosphate-aged eeAChE; type: biochemical, electric eel; remark: listed apart in the source
[11] = molecular target: isopropyl phosphate-aged (DFP-treated) recombinant huAChE (Homo sapiens, UniProt P22303); type: biochemical; conditions: pH 9
Sequence of isopropyl phosphate-aged (DFP-treated) recombinant huAChE (P22303 32-614): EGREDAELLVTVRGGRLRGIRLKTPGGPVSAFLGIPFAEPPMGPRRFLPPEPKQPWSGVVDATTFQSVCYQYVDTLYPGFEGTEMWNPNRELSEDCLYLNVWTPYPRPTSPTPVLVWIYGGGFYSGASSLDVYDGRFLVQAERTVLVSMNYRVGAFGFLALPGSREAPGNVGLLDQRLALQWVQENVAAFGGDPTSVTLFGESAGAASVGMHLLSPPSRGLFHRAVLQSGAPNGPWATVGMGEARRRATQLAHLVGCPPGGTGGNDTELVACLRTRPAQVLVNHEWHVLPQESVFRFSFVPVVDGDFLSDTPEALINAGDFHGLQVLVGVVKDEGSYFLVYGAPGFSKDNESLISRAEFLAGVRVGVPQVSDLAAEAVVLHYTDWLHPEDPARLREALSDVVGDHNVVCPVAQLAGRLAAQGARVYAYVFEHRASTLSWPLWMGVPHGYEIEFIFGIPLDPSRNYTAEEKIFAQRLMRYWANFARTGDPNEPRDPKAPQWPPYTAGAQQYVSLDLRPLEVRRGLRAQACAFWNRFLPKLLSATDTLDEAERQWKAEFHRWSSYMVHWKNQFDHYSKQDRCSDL

[12] = physchem; conditions: pH 6

T1 sequence (O42275 24-633): as the sequence (O42275 24-633) above

C[n+]1ccccc1/C=N/O [2-PAM, 2-pralidoxime, reference compound]
Percentage of AChE species: Aged [1]: 100%
Percentage of AChE species: Native [1]: 0%
Percentage of AChE species: Realkylated [1]: 0%
Percentage of AChE species: Aged [2]: 100%
Percentage of AChE species: Native [2]: 0%
Percentage of AChE species: Realkylated [2]: 0%

CCN(CC)Cc1ncccc1O [C7, 2-((diethylamino)methyl)pyridin-3-ol]
screening efficacy, relative activity (FIG. 3B), in words [3]: highest efficacy among C1 to C7

Oc1cccnc1CN1CCCC1 [C8, 2-(pyrrolidin-1-ylmethyl)pyridin-3-ol]
activity in comparison of scaffolds with pyrrolidine leaving group (M series), in words [3]: only active compound in this comparison
reactivation (resurrection of AChE activity) [3]: ~2.5%
screening efficacy, relative activity (FIG. 3B), in words [3]: most potent candidate in this screen
reactivation (resurrection of AChE activity) [4]: 1.25%
EC50 [5]: 1.18 mM
EC50 [6]: 5.87 mM
apparent reaction rate [7]: 0.20 % per hour
resurrected relative activity [7]: 20.4% and 30.4%
apparent reaction rate [8]: 0.32 % per hour
resurrected relative activity [8]: 32.7%
Percentage of AChE species: Aged [1]: 84.6%
Percentage of AChE species: Native [1]: 15.4%
Percentage of AChE species: Realkylated [1]: 0%
Percentage of AChE species: Aged [2]: 97.9%
Percentage of AChE species: Native [2]: 2.1%
Percentage of AChE species: Realkylated [2]: 0%
Relative activity (percentage of positive control) ([9]; pH 6): 0.273 ± 0.004%
Relative activity (percentage of positive control) ([9]; pH 7): 1.24 ± 0.02%
Relative activity (percentage of positive control) ([9]; pH 8): 8.47 ± 0.17%
Relative activity (percentage of positive control) ([10]; pH 6): 0.68 ± 0.06%
Relative activity (percentage of positive control) ([10]; pH 7): 1.04 ± 0.07%
Relative activity (percentage of positive control) ([10]; pH 8): 3.58 ± 0.33%
Relative activity (percentage of positive control) ([10]; pH 9): 5.27 ± 0.59%
aged enzyme resurrected [11]: 18%
pKa [12]: 7 to 8
